Where a name gives a salt, the structure may show the parent alone.

The test system of one series is mouse. As to the kind of experiment: Acute toxicity (LD50), mouse, oral, method of Reed and Muench. In kind it is in vivo, mouse (albino). Particulars: Table VI; species and route not printed in table (mouse per b12). As for the experimental part: The acute toxicities for the mouse are also very low. The medium lethal dose (LD50) for the mouse was determined according to the modified method of Reed and Muench (Reed L. J. & Muench H., Am. J. Hyg., 27, 493, 1938).
1. ACUTE TOXICITY IN THE MOUSE AND RAT
18 to 25 gr albino mouse.
The LD50 was determined according to the method of Reed and Muench. […]

For series [1], the system named is rats treated with Triton WR-1339. As to the kind of experiment: Hypolipemic action on the rat, Triton WR-1339 method. It counts as in vivo. The note with it: Table VI, with respect to Triton WR-1339. The protocol: The above-mentioned Triton WR-1339 method was selected. The total cholesterol, triglycerides and total lipids were determined in the serum. The amount of Triton WR-1339 administered to the animals was 300 mg/kg. The amount of piperazine 2,5-dihydroxy benzene sulfonate mono-tosylate administered was 2 mMoles/Kg orally. The letter P signifies probability.
The above-mentioned Triton WR-1339 method was selected. The total cholesterol, triglycerides and total lipids were determined in the serum. The results obtained are given in Table V. The amount of Triton WR-1339 administered to the animals was 300 mg/Kg. The amount of the piperazine salt with one mole of the di-0-(p-chloro phenoxy isobutyrate) of 2,5-dihydroxy benzene sulfonic acid administered was 1 mMol/Kg orally. The letter P signifies probability.
In this Triton WR-1339 method, all the compounds are administered at a dose of 2 mMoles/Kg orally excepted those compounds in which is the residue of p-chlorophenoxy isobutyric acid, which are administered orally at a dose corresponding to 2 mMoles of R per Kg, i.e. the amount used is calculated on the basis of the residue R only.

The mark [2] stands for this setting: orally, 2 mMoles of R (p-chlorophenoxy isobutyric acid residue) per Kg.

With `CC(C)(Oc1ccc(Cl)cc1)C(=O)Oc1ccc(OC(=O)C(C)(C)Oc2ccc(Cl)cc2)c(S(=O)(=O)O)c1` [magnesium salt of di-O-(p-chloro phenoxy isobutyrate) of 2,5] [magnesium salt of di-O-(p-chlorophenoxy isobutyrate) of 2,5-dihydroxy benzene sulfonic acid], the “LD50 (medium lethal dose)” value in the series on mouse amounted to 4.780 mg/kg. For the same compound, in series [1] (setting [2]), the “Percentage reduction of lipids: Cholesterol” value was 5%, the “Percentage reduction of lipids: Total Lipids” value came to 25% and the “Percentage reduction of lipids: Triglycerides” value was 51%.
With `Cc1ccc(S(=O)(=O)Oc2ccc(O)c(S(=O)(=O)O)c2)cc1` [morpholine 2,5-dihydroxybenzenesulfonate monotosylate] [morpholine 2.5-dihydroxybenzenesulphonate monotosylate], the “LD50 (medium lethal dose)” value with mouse turned out to be 5.301 mg/kg. In series [1] (2 mMoles/Kg orally), the “Percentage reduction of lipids: Cholesterol” value turned out to be 12%, the “Percentage reduction of lipids: Total Lipids” value is on record as 31% and the “Percentage reduction of lipids: Triglycerides” value was 23%.
Taken in the same sequence, the figures for `Cc1ccc(S(=O)(=O)Oc2ccc(O)c(S(=O)(=O)O)c2)cc1` [pyridine 2,5-dihydroxybenzenesulfonate monotosylate] [pyridine 2,5-dihydroxy benzene sulfonate mono-tosy-late] were 680 mg/kg, 18%, 27% and 36%.

Values taken from US3954767A, “Piperazine salts of 2,5-dihydroxy benzene sulfonic acid mono- and diesters” (priority 1972, dated 1976).
